Measurements reported in ChEMBL document CHEMBL4002563 (Eur J Med Chem, 2017).
Activity calls are given as the source filed them. The rule behind the calls is not given here.

How the values were obtained:
Rho GTPase Rac1/CDC42 = Rho GTPase Rac1/CDC42 (Homo sapiens, UniProt P60953+P63000); assay: Inhibition of RAC1/CDC42 in human ovarian cancer cells; type: cell-based
[1] = target: Serine/threonine-protein kinase PAK 1 (Homo sapiens, UniProt Q13153); assay: Inhibition of PAK1 in human A549 cells using myelin basic protein as substrate preincubated for 24 hrs followed by PAK1 immunoprecipation and substrate addition measured after 60 mins by ATP-Glo kinase assay
Chain of Serine/threonine-protein kinase PAK 1 (Q13153 whole entry): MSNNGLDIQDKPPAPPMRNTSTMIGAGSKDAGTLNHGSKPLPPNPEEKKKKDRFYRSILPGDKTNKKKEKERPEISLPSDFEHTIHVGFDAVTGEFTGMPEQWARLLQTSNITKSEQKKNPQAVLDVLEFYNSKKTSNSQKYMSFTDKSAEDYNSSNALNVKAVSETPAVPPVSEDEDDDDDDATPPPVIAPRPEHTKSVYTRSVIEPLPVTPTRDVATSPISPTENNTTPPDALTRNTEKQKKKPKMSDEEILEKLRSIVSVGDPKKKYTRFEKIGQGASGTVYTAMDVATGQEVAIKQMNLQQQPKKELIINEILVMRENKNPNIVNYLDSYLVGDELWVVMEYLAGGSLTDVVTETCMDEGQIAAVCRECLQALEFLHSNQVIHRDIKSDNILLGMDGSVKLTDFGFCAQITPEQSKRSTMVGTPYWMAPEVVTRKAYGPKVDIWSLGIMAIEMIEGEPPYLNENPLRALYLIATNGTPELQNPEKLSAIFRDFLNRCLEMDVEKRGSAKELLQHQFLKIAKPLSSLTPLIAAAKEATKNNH

EMT6 = assay: Cytotoxicity against multidrug-resistant mouse EMT6 cells at 100 uM measured after 24 hrs by MTT assay; type: functional, cell-based
[2] = Inhibition of PAK1/COX2 in human A549 cells harboring Ki-RAS mutant assessed as cell growth inhibition measured after 72 hrs by MTT assay; type: cell-based; details: A549, 72 h
[3] = target: T1, Prostaglandin G/H synthase 2 (Homo sapiens, UniProt P35354); assay: Inhibition of recombinant human COX2 using arachidonic acid as substrate measured after 2 to 5 mins
T1 sequence (P35354 whole entry): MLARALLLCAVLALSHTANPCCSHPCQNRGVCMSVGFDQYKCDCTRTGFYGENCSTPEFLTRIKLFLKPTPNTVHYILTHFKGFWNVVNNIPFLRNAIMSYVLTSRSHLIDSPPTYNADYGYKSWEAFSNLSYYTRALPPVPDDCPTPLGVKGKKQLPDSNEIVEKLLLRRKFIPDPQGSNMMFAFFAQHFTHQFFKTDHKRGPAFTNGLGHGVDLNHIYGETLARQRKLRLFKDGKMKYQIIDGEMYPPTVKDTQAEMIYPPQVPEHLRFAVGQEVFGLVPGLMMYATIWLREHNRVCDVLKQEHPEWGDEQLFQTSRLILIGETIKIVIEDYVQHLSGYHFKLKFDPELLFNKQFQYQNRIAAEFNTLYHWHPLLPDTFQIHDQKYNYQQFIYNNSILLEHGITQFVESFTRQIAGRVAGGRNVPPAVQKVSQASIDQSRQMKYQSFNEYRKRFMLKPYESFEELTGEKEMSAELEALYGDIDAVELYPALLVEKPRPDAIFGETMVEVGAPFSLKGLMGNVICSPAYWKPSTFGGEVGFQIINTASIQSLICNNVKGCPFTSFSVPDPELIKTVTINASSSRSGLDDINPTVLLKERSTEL

[4] = Drug-uptake in multidrug-resistant mouse EMT6 cells at 100 uM measured after 1 hr by HPLC method; type: ADME, cell-based; details: emt6, 1 h
B16-F10 = assay: Cytotoxicity against PAK1-independent mouse B16F10 cells assessed as cell growth inhibition measured after 72 hrs by MTT assay; type: functional, cell-based; details: B16-F10, 72 h
[5] = Drug-uptake in multidrug-resistant mouse EMT6 cells at 100 uM measured after 6 hrs by HPLC method; type: ADME, cell-based; details: emt6, 6 h
[6] = Inhibition of PAK1/COX2 in human A549 cells harboring Ki-RAS mutant assessed as cell growth inhibition measured after 72 hrs by trypan blue assay; type: cell-based; details: A549, 72 h
[7] = Drug metabolism in human A549 cells assessed as mitochondrial reductase mediated azo dye formation by colorimetric method; type: ADME, cell-based
LIM1899 = assay: Cytotoxicity against human LIM1899 cells up to 100 uM measured after 24 hrs by trypan blue assay; type: functional, cell-based

| Drug uptake [5] | Drug metabolism [7] | SMILES | IC50 (Rho GTPase Rac1/CDC42) | IC50 [1] | Activity (EMT6) | IC50 [2] | IC50 [3] | Drug uptake [4] | IC50 (B16-F10) | IC50 [6] | Activity (LIM1899) |
| --- | --- | --- | --- | --- | --- | --- | --- | --- | --- | --- | --- |
| – | – | O=C(c1ccccc1)c1ccc2n1CC[C@H]2C(=O)O | 1000 nM | – | – | – | – | – | – | – | – |
| – | – | O=C(c1ccccc1)c1ccc2n1CCC2C(=O)O (stereo not given) [KETOROLAC] | 2000 nM | 36000 nM | inactive | 13000 nM | 140 nM | 0.37 nmol | 30000 nM | – | – |
| Not Active | Metabolite_Detected | COc1ccccc1-n1cc(COC(=O)C2CCn3c(C(=O)c4ccccc4)ccc32)nn1 (stereo not given) | – | 65 nM | inactive | – | – | 3.75 nmol | – | 24 nM | inactive |
